22 compounds from patent publication US8580812B2, “Heteroaryl amide analogues as P2X7 antagonists” (H. Lundbeck A/S, priority 2007, dated 2013) can be followed below.

In this test the target is T1, P2X7 (Homo sapiens, UniProt Q99572).
T1 construct: host or cells: SH-SY5Y
T1 sequence (Q99572 1-595): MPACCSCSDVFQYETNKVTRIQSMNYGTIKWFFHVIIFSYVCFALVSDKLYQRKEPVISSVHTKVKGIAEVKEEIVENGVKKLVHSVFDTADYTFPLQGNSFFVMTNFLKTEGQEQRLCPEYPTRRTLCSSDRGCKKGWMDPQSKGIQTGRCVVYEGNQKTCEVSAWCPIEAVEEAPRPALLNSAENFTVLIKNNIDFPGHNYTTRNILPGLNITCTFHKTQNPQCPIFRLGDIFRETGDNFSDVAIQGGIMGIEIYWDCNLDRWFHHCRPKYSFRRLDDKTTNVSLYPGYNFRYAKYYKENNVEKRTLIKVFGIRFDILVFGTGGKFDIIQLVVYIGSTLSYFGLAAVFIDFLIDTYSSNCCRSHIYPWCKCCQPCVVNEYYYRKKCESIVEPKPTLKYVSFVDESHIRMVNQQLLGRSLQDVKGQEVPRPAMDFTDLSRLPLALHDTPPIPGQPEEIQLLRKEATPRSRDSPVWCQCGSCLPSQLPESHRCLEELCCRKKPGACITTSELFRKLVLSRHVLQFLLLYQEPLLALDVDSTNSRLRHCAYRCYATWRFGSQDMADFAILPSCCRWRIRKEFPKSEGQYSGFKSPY
Briefly: High Throughput P2X7 Calcium Mobilization Assay (Example 4A), antagonist activity. In kind it is cell-based. Conditions: SH-SY5Y cells, 50% decrease in fluorescence response of cells exposed to 80 μM BzATP. Summed up:
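SH-SY5Y cells loaded with Fluo-4 AM were preincubated 1 h at room temperature with compound (typically 1–2500 nM) in sucrose/HEPES buffer, pH 7.4, then challenged with 80 μM BzATP (final, about EC50). Peak fluorescence over 2 min gave percent inhibition relative to agonist-only wells, and IC50 came from a Hill-equation fit.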
Background: Calcium flux is commonly read through the fluorescence of an indicator in the cells.

In the case of `CC(C)CC(CNC(=O)c1cccn2nc(C(=O)N3CCn4cncc4C3)cc12)c1ccc(C(F)(F)F)cc1` (stereo not shown) [Compound 88, 2-(5,6-dihydroimidazo[1,5-a]pyrazin-7(8H)-ylcarbonyl)-N-{4-methyl-2-[4-(trifluoromethyl)phenyl]pentyl}pyrazolo[1,5-a]pyridine-4-carboxamide], the IC50 – broadly, the concentration at which inhibition is half-maximal – is at most 2000 nM.

On to `O=C(NCC12CC3CC(CC(C3)C1)C2)c1cccn2nc(CC3=NCCN3)cc12` [Compound 89, N-(adamantan-1-ylmethyl)-2-(4,5-dihydro-1H-imidazol-2-ylmethyl)pyrazolo[1,5-a]pyridine-4-carboxamide], for which the half-maximal inhibitory concentration (IC50) was at most 2000 nM.

`N[C@@H]1CCN(C(=O)c2cc3c(C(=O)NCC4(c5ccc(Cl)cc5)CCCCC4)cccn3n2)C1` [Compound 90, 2-{[(3R)-3-aminopyrrolidin-1-yl]carbonyl}-N-{[1-(4-chlorophenyl)cyclohex-yl]methyl}pyrazolo[1,5-a]pyridine-4-carboxamide]: the IC50 was at most 2000 nM.

On to `CC(C)CC(CNC(=O)c1cccn2nc(C(=O)N3CCOCC3)cc12)c1ccc(Cl)cc1` (stereo not shown) [Compound 91, N-[2-(4-chlorophenyl)-4-methylpentyl]-2-(morpholin-4-ylcarbonyl)pyrazolo [1,5-a]pyridine-4-carboxamide], for which the half-maximal inhibitory concentration (IC50) is at most 2000 nM.

Turning to `CC(C)CC(CNC(=O)c1cccn2nc(C(=O)N(C)CCF)cc12)c1ccc(Cl)cc1` (stereo not shown) [Compound 92, Pyrazolo[1,5-a]pyridine-2,4-dicarboxylic acid 4-{[2-(4-chloro-phenyl)-4-methyl-pentyl]-amide} 2-[(2-fluoro-ethyl)-methyl-amide]], the half-maximal inhibitory concentration (IC50) was at most 2000 nM.

On to `CN(CCF)C(=O)c1cc2c(C(=O)NCC3(c4ccc(C(F)(F)F)cc4)CCCCC3)cccn2n1` [Compound 93, Pyrazolo[1,5-a]pyridine-2,4-dicarboxylic acid 2-[(2-fluoro-ethyl)-methyl-amide]-4-{[1-(4-trifluoromethyl-phenyl)-cyclohexylmethyl]-amide}], for which the IC50 was at most 2000 nM.

As to `O=C(NCC1(c2ccc(C(F)(F)F)cc2)CCCCC1)c1cccn2nc(C(=O)N3CCOCC3)cc12` [Compound 94, 2-(morpholin-4-ylcarbonyl)-N-({1-[4-(trifluoromethyl)phenyl]cyclohexyl}methyl) pyrazolo[1,5-a]pyridine-4-carboxamide], the IC50 was at most 2000 nM.

In the case of `O=C(NCC12CC3CC(CC(C3)C1)C2)c1cccn2nc(CCC3=NCCN3)cc12` [Compound 95, N-(adamantan-1-ylmethyl)-2-[2-(4,5-dihydro-1H-imidazol-2-yl)ethyl]pyrazolo[1,5-a]pyridine-4-carboxamide], the concentration for half-maximal inhibition (IC50) was at most 2000 nM.

Regarding `O=C(CC12CC3CC(CC(C3)C1)C2)Nc1cccn2nc(C(=O)N3CCOCC3)cc12` [Compound 96, 2-adamantan-1-yl-N-[2-(morpholin-4-ylcarbonyl)pyrazolo [1,5-a]pyridin-4-yl]acetamide], the half-maximal inhibitory concentration (IC50) was at most 2000 nM.

Regarding `O=C(CC12CC3CC(CC(C3)C1)C2)Nc1cccn2nc(C(=O)N3CCn4cncc4C3)cc12` [Compound 97, 2-adamantan-1-yl-N-[2-(5,6-dihydroimidazo[1,5-a]pyrazin-7(8H)-ylcarbonyl)pyrazolo [1,5-a]pyridin-4-yl]acetamide], the IC50 is at most 2000 nM.

For the compound `CN(CCF)C(=O)c1cc2c(NC(=O)CC34CC5CC(CC(C5)C3)C4)cccn2n1` [Compound 98, 4-[(adamantan-1-ylacetyl)amino]-N-(2-fluoroethyl)-N-methylpyrazolo[1,5-a]pyridine-2-carboxamide], the IC50 is at most 2000 nM.

For the compound `N[C@@H]1CCN(C(=O)c2cc3c(NC(=O)CC45CC6CC(CC(C6)C4)C5)cccn3n2)C1` [Compound 99, 2-adamantan-1-yl-N-(2-{[(3R)-3-aminopyrrolidin-1-yl]carbonyl}pyrazolo [1,5-a]pyridin-4-yl)acetamide], the 50% inhibitory concentration (IC50) was at most 2000 nM.

As to `CC(C)CC(CNC(=O)c1cccn2nc(C(=O)N3CCOC(C)(C)C3)cc12)c1ccc(C(F)(F)F)cc1` (stereo not shown) [Compound 101, 2-[(2,2-dimethylmorpholin-4-yl)carbonyl]-N-{4-methyl-2-[4-(trifluoromethyl)phenyl]pentyl}pyrazolo[1,5-a]pyridine-4-carboxamide], the IC50 is at most 2000 nM.

Consider `O=C(NCC12CC3CC(CC(C3)C1)C2)c1cccn2nc(C(Cc3ccccc3)C(=O)O)cc12` (stereo not shown) [Compound 103, 2-{4-[(adamantan-1-ylmethyl)carbamoyl]pyrazolo[1,5-a]pyridin-2-yl}-3-phenylpropanoic acid], for which the concentration for half-maximal inhibition (IC50) was at most 2000 nM.

On to `O=C(NCC1(c2ccc(Cl)cc2)CCCCC1)c1cccn2nc(C(Cc3ccccc3)C(=O)O)cc12` (stereo not shown) [Compound 104, 2-[4-({[1-(4-chlorophenyl)cyclohex-yl]methyl}carbamoyl)pyrazolo[1,5-a]pyridin-2-yl]-3-phenyl propanoic acid], for which the IC50 was at most 2000 nM.

As for `CC(CC(=O)O)c1cc2c(C(=O)NCC34CC5CC(CC(C5)C3)C4)cccn2n1` (stereo not shown) [Compound 105, 3-{4-[(adamantan-1-ylmethyl)carbamoyl]pyrazolo[1,5-a]pyridin-2-yl}butanoic acid], the IC50 is at most 2000 nM.

For `O=C(O)CC(c1ccccc1)c1cc2c(C(=O)NCC34CC5CC(CC(C5)C3)C4)cccn2n1` (stereo not shown) [Compound 106, 3-{4-[(adamantan-1-ylmethyl)carbamoyl]pyrazolo[1,5-a]pyridin-2-yl}-3-phenylpropanoic acid], the half-maximal inhibitory concentration (IC50) was at most 2000 nM.

On to `O=C(O)CC(Cc1ccccc1)c1cc2c(C(=O)NCC34CC5CC(CC(C5)C3)C4)cccn2n1` (stereo not shown) [Compound 107, 3-{4-[(adamantan-1-ylmethyl)carbamoyl]pyrazolo[1,5-a]pyridin-2-yl}-4-phenylbutanoic acid], for which the half-maximal inhibitory concentration (IC50) was at most 2000 nM.

In the case of `O=C(O)c1ccc(-c2cc3c(C(=O)NCC45CC6CC(CC(C6)C4)C5)cccn3c2)cc1` [Compound 108, 4-{8-[(adamantan-1-ylmethyl)carbamoyl]indolizin-2-yl}benzoic acid], the 50% inhibitory concentration (IC50) is at most 2000 nM.

`N#Cc1ccc(C(=O)c2ccc3c(C(=O)NCC45CC6CC(CC(C6)C4)C5)cccn23)cc1` [Compound 109, N-(adamantan-1-ylmethyl)-3-(4-cyanobenzoyl)indolizine-8-carboxamide]: the IC50 was at most 2000 nM.

With `NC(=O)c1ccc(C(=O)c2ccc3c(C(=O)NCC45CC6CC(CC(C6)C4)C5)cccn23)cc1` [Compound 110, N-(adamantan-1-ylmethyl)-3-(4-carbamoylbenzoyl) indolizine-8-carboxamide], the concentration for half-maximal inhibition (IC50) is at most 2000 nM.

Turning to `NC(=O)c1ccc(-c2cc3c(C(=O)NCC45CC6CC(CC(C6)C4)C5)cccn3c2)cc1` [Compound 112, N-(adamantan-1-ylmethyl)-2-(4-carbamoylphenyl) indolizine-8-carboxamide], the half-inhibitory concentration (IC50) was at most 2000 nM.
